In paper PMC11042424, “Development of a First-in-Class RIPK1 Degrader to Enhance Antitumor Immunity” (Research Square, 2024):

Assays:
[1] = system: B16F10 cells; experiment: TNFα-mediated apoptosis in B16F10 cells; type: cell-based, mouse; conditions: 1 μM, TNFα 100 ng/mL, 72 hours
Description: Figure 3 LD4172 sensitizes B16F10 cells to TNFα-mediated apoptosis. A, Representative flow cytometry dot plots of apoptosis. In all four plots, viable cells are seen in the left lower quadrant (FITC-/PI-), early apoptotic cells in the right lower quadrant (FITC+/PI-), and late apoptotic cells in the right upper quadrant (FITC+/PI+). B, Representative images of PI (red) and caspase 3/7 (Cas3/7+, green) staining of B16F10 cells. Cell death assessed by PI uptake using Cytation 5 imager. C, Western blots for the expression of cleaved caspase3, cleaved caspase7, and cleaved PARP in B16F10 cells. D, Quantification of extracellular ATP level. Western blots for the expression of HMGB1 and calreticulin in B16F10 cells. E, Immunofluorescence staining of HMGB1 in B16F10 cells. B16F10 cells were treated in the presence or absence of TNFα (100 ng/mL), Z-VAD-FMK (25 μM), LD4172 (1 μM), and/or T2I (1 μM) as indicated for 72 hours. Data are representative of three independent experiments. Error bars represent SD.
Apoptosis quantification was conducted utilizing a FITC-conjugated Annexin V/PI assay kit (556547, BD Biosciences) and analyzed through flow cytometry. Briefly, 2×10^5 of B16F10 cells were seeded onto six-well plates and treated as specified for 72 hours at 37°C. Treated and untreated cells were harvested, washed with PBS, and resuspended in 100 μl of binding buffer. […]

[2] = system: B16F10 tumors; experiment: B16F10 syngeneic tumor model with anti-PD1; type: in vivo; conditions: B16F10 tumors; 20 mg/kg i.p. daily plus anti-PD1 100 μg i.p. every three days
Experimental: Figure 4 LD4172 synergizes with Anti-PD1 to inhibit tumor growth. A, Plasma concentrations of LD4172 in C57BL/6J mice administered 1 mg/kg intravenously (i.v.) or 10 mg/kg intraperitoneally (i.p.) (n=4). B, Representative immunoblots of RIPK1 in different tissues of C57BL/6J mice treated with LD4172 (n=3–4). C, Densitometric analysis of RIPK1 protein levels in different tissues (n=3 or 4). D, Representative immunoblots of RIPK1 levels of B16F10 cells transduced with gRNA specific for RIPK1 or non-targetable control (sgNC). E, B16F10-RIPK1-KO tumors sensitized to anti-PD1 treatment: 3×10^5 B16F10 cells transduced with gRNA specific for RIPK1 or non-targetable control (sgNC) were inoculated into C57BL/6J mice. After seven days, mice with measurable tumors (~100 mm3) were randomly treated with or without anti-PD1 in vivo (100 μg per dose, i.p., every three days, n=8). F, Tumor growth curve of mice with B16F10 tumors treated with LD4172 and/or anti-PD1 (n=8). C57B6/J mice were subcutaneously inoculated with 3×10^5 B16F10 tumor cells. After seven days (tumor size ~ 100 mm3), mice were treated every three days with anti- PD1 (100 μg per dose, i.p.), daily with LD4172 (20 mg/kg, i.p.), a combination of LD4172 and anti-PD1 (same dose as their individual doses), or their corresponding vehicle control. G, Kaplan-Meier survival curve for all experimental groups. H, Final tumor weight (g) from F after 22d of treatment (n=8). I, Representative images of B16F10 tumors collected at the end of treatment. J, Mouse body weight (n=8). K, Tumor growth curve of mice with B16F10 tumors treated with T2I and/or anti-PD1 (n=8). The experimental conditions and treatment regimens were the same as F except using the RIPK1 kinase inhibitor T2I (20 mg/kg, i.p.) to replace LD4172. Representative data from at least three independent experiments are shown. Data are expressed as the mean ± SEM. * p<0.05; ** p<0.01; *** p<0.001, **** p<0.0001, respectively. ns, indicates no statistical significance.
To establish a syngeneic mouse model, 3× 10^5 B16F10 cells resuspended in PBS were mixed 1:1 by volume with Matrigel (354262, Corning) and subcutaneously injected into the right flank of seven-week-old wild-type female C57BL/6J mice on day 0. Treatments were started on day 7 when the tumor volume reached approximately 100 mm^3. Antibodies were administered in 100μL volumes and injected intraperitoneally every three days for the following: anti-PD1 (100 μg, BE0146, BioXcell) and anti-CD8 (500 μg, BE0004, BioXcell). The RIPK1 degrader LD4172 and RIPK1 kinase inhibitor T2I were delivered in 200 μL of vehicle solution (30% PEG400, 5% Tween-80, 5% DMSO) once daily (20 mg/kg, i.p. injection). […] Tumors were measured every three days beginning on day 7 after the challenge until death. […]

For `CCn1cc(-c2ccc3c(c2)CCN3C(=O)Cc2cccc(OC(F)(F)F)c2)c2c(N)ncnc21` [T2I, reference compound], the “cell death / apoptosis in combination with TNFα” value [1] was “did not trigger TNFα-mediated apoptosis” and the “tumor response in combination with anti-PD1” value [2] was “failed to sensitize B16F10 tumors to anti-PD1 treatment”.
